Laboratory results reported in ChEMBL document CHEMBL5055654, “Discovery of 5-methylpyrimidopyridone analogues as selective antimycobacterial agents” (Bioorg Med Chem, 2021).
Converted amounts (≈) assume the structure as drawn. The source made the active and inactive calls. The rule behind the calls is not given here.

What was measured:
[1] = test system: Mycobacterium tuberculosis; test: Antitubercular activity against Mycobacterium tuberculosis mc2 6230 assessed as inhibition of bacterial growth incubated for 7 days; assay type: functional; conditions: mc2 6230, 168 h, time 7 day
[2] = Binding affinity to Mycobacterium tuberculosis PknB
[3] = test system: Escherichia coli; test: Antibacterial activity against Escherichia coli at 10 uM incubated for 16 hrs by microtiter reader analysis; assay type: functional, organism-based
[4] = test system: Salmonella; test: Antibacterial activity against Salmonella at 10 uM incubated for 16 hrs by microtiter reader analysis; assay type: functional, organism-based
[5] = test system: Vero; test: Cytotoxicity against African green monkey Vero cells assessed as reduction in cell viability measured after 72 hrs by CCK8 assay; assay type: cell-based; conditions: Chlorocebus sabaeus

**Q.** For `Cc1c(-c2ccccc2Cl)c(=O)n(C23CC4CC(CC(C4)C2)C3)c2nc(NC(C)C)ncc12`, which MIC [1] is on record?
**A.** Its MIC is 256 µM (≈ 119 µg/mL).

**Q.** With `Cc1c(-c2ccccc2Cl)c(=O)n(C23CC4CC(CC(C4)C2)C3)c2nc(Nc3ccc(N4CCN(C)CC4)cc3)ncc12` as the compound, how does the MIC [1] read?
**A.** Its MIC is 512 µM (≈ 305 µg/mL).

**Q.** With `Cc1c(-c2ccccc2Cl)c(=O)n(C23CC4CC(CC(C4)C2)C3)c2nc(NC3CCCC3)ncc12` as the compound, how does the MIC [1] read?
**A.** The MIC was 265 µM (≈ 130 µg/mL).

**Q.** For `Cc1c(-c2ccccc2Cl)c(=O)n(C23CC4CC(CC(C4)C2)C3)c2nc(N3CCC(N(C)C)CC3)ncc12`, which MIC [1] is on record?
**A.** The MIC was 16 µM (≈ 8.51 µg/mL).

**Q.** Which MIC [1] does the source give for `Cc1cc(Nc2ncc3c(C)c(-c4ccccc4)c(=O)n(C45CC6CC(CC(C6)C4)C5)c3n2)ccc1N1CCC(N(C)C)CC1` here?
**A.** The MIC was 16 µM (≈ 9.65 µg/mL).

**Q.** With `Cc1c(-c2ccccc2Cl)c(=O)n(C23CC4CC(CC(C4)C2)C3)c2nc(N3CCC(N4CCOCC4)CC3)ncc12` as the compound, how does the MIC [1] read?
**A.** Its MIC is over 512 µM.

**Q.** Which Kd [2] does the source give for `COc1cc(Nc2ncc3c(C)c(-c4ccccc4Cl)c(=O)n(C45CC6CC(CC(C6)C4)C5)c3n2)ccc1N1CCN(C)CC1` here?
**A.** Its Kd is 0.75 µM.

**Q.** What about the MIC [1] of the same compound?
**A.** Its MIC is 8 µM (≈ 5 µg/mL).

**Q.** With `CCC(C)Nc1ncc2c(C)c(-c3ccccc3Cl)c(=O)n(C34CC5CC(CC(C5)C3)C4)c2n1` (stereo not given) as the compound, how does the MIC [1] read?
**A.** The MIC was 512 µM (≈ 244 µg/mL).

**Q.** For `Cc1c(-c2ccccc2Cl)c(=O)n(C23CC4CC(CC(C4)C2)C3)c2nc(NC3CCCCC3)ncc12`, which MIC [1] is on record?
**A.** Its MIC is 512 µM (≈ 258 µg/mL).

**Q.** With `Cc1c(-c2ccccc2Cl)c(=O)n(C23CC4CC(CC(C4)C2)C3)c2nc(NC[C@H]3CCCO3)ncc12` as the compound, how does the MIC [1] read?
**A.** Its MIC is over 512 µM.

**Q.** For `Cc1cc(Nc2ncc3c(C)c(-c4ccccc4Cl)c(=O)n(C45CC6CC(CC(C6)C4)C5)c3n2)ccc1N1CCN(CCO)CC1`, which MIC [1] is on record?
**A.** Its MIC is 32 µM (≈ 20.5 µg/mL).

**Q.** With `Cc1cc(Nc2ncc3c(C)c(-c4cccc(Cl)c4)c(=O)n(C45CC6CC(CC(C6)C4)C5)c3n2)ccc1N1CCC(N(C)C)CC1` as the compound, how does the MIC [1] read?
**A.** Its MIC is over 512 µM.

**Q.** With `Cc1cc(Nc2ncc3c(C)c(-c4ccccc4Cl)c(=O)n(C45CC6CC(CC(C6)C4)C5)c3n2)ccc1N1CCN(C)CC1` as the compound, how does the Activity [3] read?
**A.** Its Activity is “inactive”.

**Q.** What about the Activity [4] of the same compound?
**A.** Its Activity is “inactive”.

**Q.** What about the IC50 [5] of the same compound?
**A.** The IC50 was 4.8 µM.

**Q.** What about the MIC [1] of the same compound?
**A.** The MIC was 8 µM (≈ 4.87 µg/mL).

**Q.** Which Activity [3] does the source give for `Cc1cc(Nc2ncc3c(C)c(-c4ccccc4Cl)c(=O)n(C45CC6CC(CC(C6)C4)C5)c3n2)ccc1N1CCC(N(C)C)CC1` here?
**A.** The Activity was “inactive”.

**Q.** What about the Activity [4] of the same compound?
**A.** The Activity was “inactive”.

**Q.** And the IC50 [5]?
**A.** Its IC50 is 2.9 µM.

**Q.** What about the MIC [1] of the same compound?
**A.** The MIC was 4 µM (≈ 2.55 µg/mL).

**Q.** For `Cc1cc(Nc2ncc3c(C)c(-c4ccccc4Cl)c(=O)n(C4CCCC4)c3n2)ccc1N1CCC(N(C)C)CC1`, which MIC [1] is on record?
**A.** Its MIC is 32 µM (≈ 18.3 µg/mL).

**Q.** With `Cc1c(-c2ccccc2Cl)c(=O)n(C23CC4CC(CC(C4)C2)C3)c2nc(Nc3ccc(N4CCN(C)CC4)c(OC(C)C)c3)ncc12` as the compound, how does the Activity [3] read?
**A.** The Activity was “inactive”.

**Q.** What about the Activity [4] of the same compound?
**A.** Its Activity is “inactive”.

**Q.** And the IC50 [5]?
**A.** The IC50 was 4.6 µM.

**Q.** And the MIC [1]?
**A.** The MIC was 8 µM (≈ 5.23 µg/mL).

**Q.** Which MIC [1] does the source give for `Cc1c(-c2ccccc2Cl)c(=O)n(C23CC4CC(CC(C4)C2)C3)c2nc(N(C)CCO)ncc12` here?
**A.** The MIC was over 512 µM.

**Q.** For `Cc1cc(Nc2ncc3c(C)c(-c4ccc(Cl)cc4)c(=O)n(C45CC6CC(CC(C6)C4)C5)c3n2)ccc1N1CCC(N(C)C)CC1`, which MIC [1] is on record?
**A.** Its MIC is over 512 µM.

**Q.** For `Cc1cc(Nc2ncc3c(C)c(-c4ccccc4C#N)c(=O)n(C45CC6CC(CC(C6)C4)C5)c3n2)ccc1N1CCC(N(C)C)CC1`, which MIC [1] is on record?
**A.** The MIC was 16 µM (≈ 10 µg/mL).

**Q.** Which MIC [1] does the source give for `Cc1cc(Nc2ncc3c(C)c(-c4ccccc4Cl)c(=O)n(C4CCCCC4)c3n2)ccc1N1CCC(N(C)C)CC1` here?
**A.** Its MIC is 32 µM (≈ 18.7 µg/mL).

**Q.** What does the source list for `CCOc1cc(Nc2ncc3c(C)c(-c4ccccc4Cl)c(=O)n(C45CC6CC(CC(C6)C4)C5)c3n2)ccc1N1CCN(C)CC1`?
**A.** Activity [3]: inactive; Activity [4]: inactive; IC50 [5]: 4.4 µM; MIC [1]: 8 µM (≈ 5.11 µg/mL)

**Q.** Which MIC [1] does the source give for `Cc1c(-c2ccccc2Cl)c(=O)n(C23CC4CC(CC(C4)C2)C3)c2nc(N3CCC(C)CC3)ncc12` here?
**A.** Its MIC is over 512 µM.

**Q.** With `CCNc1ncc2c(C)c(-c3ccccc3Cl)c(=O)n(C34CC5CC(CC(C5)C3)C4)c2n1` as the compound, how does the MIC [1] read?
**A.** The MIC was 256 µM (≈ 115 µg/mL).

**Q.** Which MIC [1] does the source give for `Cc1c(-c2ccccc2Cl)c(=O)n(C23CC4CC(CC(C4)C2)C3)c2nc(NCCO)ncc12` here?
**A.** The MIC was over 512 µM.

**Q.** For `COc1ccccc1-c1c(C)c2cnc(Nc3ccc(N4CCC(N(C)C)CC4)c(C)c3)nc2n(C23CC4CC(CC(C4)C2)C3)c1=O`, which MIC [1] is on record?
**A.** The MIC was 16 µM (≈ 10.1 µg/mL).

**Q.** With `NNC(=O)c1ccncc1` [ISONIAZID] as the compound, how does the MIC [1] read?
**A.** Its MIC is 0.2 µM (≈ 0.0274 µg/mL).

**Q.** For `COc1nc2ccc(Br)cc2cc1[C@@H](c1ccccc1)[C@@](O)(CCN(C)C)c1cccc2ccccc12` [BEDAQUILINE], which MIC [1] is on record?
**A.** The MIC was 0.02 µM (≈ 0.0111 µg/mL).

**Q.** With `Cc1ccccc1-c1c(C)c2cnc(Nc3ccc(N4CCC(N(C)C)CC4)c(C)c3)nc2n(C23CC4CC(CC(C4)C2)C3)c1=O` as the compound, how does the MIC [1] read?
**A.** The MIC was 8 µM (≈ 4.93 µg/mL).

**Q.** For `Cc1c(-c2ccccc2Cl)c(=O)n(C23CC4CC(CC(C4)C2)C3)c2nc(N3CCN(C)CC3)ncc12`, which MIC [1] is on record?
**A.** Its MIC is over 512 µM.

**Q.** For `Cc1c(-c2ccccc2Cl)c(=O)n(C23CC4CC(CC(C4)C2)C3)c2nc(N3CC(OC(C)C)C3)ncc12`, which MIC [1] is on record?
**A.** The MIC was over 512 µM.

**Q.** With `Cc1c(-c2ccccc2Cl)c(=O)n(C23CC4CC(CC(C4)C2)C3)c2nc(NC3CC3)ncc12` as the compound, how does the MIC [1] read?
**A.** The MIC was 265 µM (≈ 122 µg/mL).

**Q.** For `CCCCNc1ncc2c(C)c(-c3ccccc3Cl)c(=O)n(C34CC5CC(CC(C5)C3)C4)c2n1`, which MIC [1] is on record?
**A.** The MIC was 512 µM (≈ 244 µg/mL).

**Q.** For `Cc1c(-c2ccccc2Cl)c(=O)n(C23CC4CC(CC(C4)C2)C3)c2nc(N3CCN(CCO)CC3)ncc12`, which MIC [1] is on record?
**A.** The MIC was 64 µM (≈ 34.2 µg/mL).

**Q.** Which MIC [1] does the source give for `Cc1cc(Nc2ncc3c(C)c(-c4ccccc4Cl)c(=O)n(C45CC6CC(CC(C6)C4)C5)c3n2)ccc1N1CCC(C)CC1` here?
**A.** Its MIC is over 512 µM.

**Q.** With `COCCNc1ncc2c(C)c(-c3ccccc3Cl)c(=O)n(C34CC5CC(CC(C5)C3)C4)c2n1` as the compound, how does the MIC [1] read?
**A.** The MIC was over 512 µM.

**Q.** For `Cc1cc(Nc2ncc3c(C)c(-c4ccccc4F)c(=O)n(C45CC6CC(CC(C6)C4)C5)c3n2)ccc1N1CCC(N(C)C)CC1`, which MIC [1] is on record?
**A.** The MIC was 32 µM (≈ 19.9 µg/mL).

**Q.** Which MIC [1] does the source give for `Cc1c(-c2ccccc2Cl)c(=O)n(C23CC4CC(CC(C4)C2)C3)c2nc(N3CCC(O)CC3)ncc12` here?
**A.** Its MIC is over 512 µM.
